Measured values as given in publication PMC9820303, “^αN-Acetyl β-Endorphin Is an Endogenous Ligand of σ1Rs That Regulates Mu-Opioid Receptor Signaling by Exchanging G Proteins for σ2Rs in σ1R Oligomers” (International Journal of Molecular Sciences, 2022).

Experiments:
[1] = tested on: NMDAR overactivation seizures in CD1 mice; experiment: NMDA-induced seizures (1 nmol NMDA icv); format: in vivo, mouse; conditions: for effect on behavioral signs evoked by NMDA: 8 mice
Experimental: Figure 1 ^αN-acetyl β-End 1–31 reduced ischemic brain damage and diminished seizures induced by NMDAR overactivation. Implication of σ1Rs. (A) ^αN-acetyl β-End 1–31 administration diminished ischemic brain damage in wild-type but not σ1R^−/− mice. Upper panel: representative 2,3,5-triphenyltetrazolium chloride (TTC)-stained brain section images obtained from saline- and drug-treated mice (3 nmol, 1 h after surgery) 48 h after pMCAO. White indicates infarction; red staining indicates normal tissue. Lower panel: the bar graphs quantitatively compare the infarct volume based on TTC staining from wild-type mice treated with saline, β-End 1–31 and the σ1R agonist PRE084 (white bars). The reducing effect of ^αN-acetyl β-End 1–31 was counteracted by β-End 1–31 and PRE084 (gray bars). In σ1R^−/− mice, the positive effect of ^αN-acetyl β-End 1–31 was not observed. […] Effects of PPCC, β-End 1–31 and ^αN-acetyl β-End 1–31 on seizures induced by NMDA in wild-type and σ1R^−/− mice. The mice received icv 1 nmol of the NMDAR agonist NMDA 30 min after the other drugs (3 nmol) and were then immediately evaluated. […] ANOVA followed by the Holm–Sidak multiple comparisons test, p < 0.05, 1-β > 0.80.
Seizures were induced by injection of NMDA (1 nmol/mouse icv, in a volume of 4 μL sterile saline) as described by others. […] The seizure activity consisted of a mild myoclonic phase (immobility, mouth and facial movements, tail extension, circling), rearing (violent movements of the whole body, rearing), wild running (episodes of running with explosive jumps), clonic convulsions (characterized by rigidity of the whole body, including limb flexion/extension), followed by continuous/repetitive seizure activity (tonic seizures) and, in approximately 15–20% of the animals, death. The episode typically began a few seconds after injection and evolved to its maximal intensity in less than 1 min.

CCI CD1 mice = experiment: Chronic sciatic nerve constriction injury (CCI), mechanical allodynia, von Frey test; format: in vivo, mouse
Experimental: Implication of σ1Rs. […] Upper panel: the withdrawal thresholds of the contralateral and ipsilateral paws were measured before (indicated as 0) and up to 14 days after surgery. […] Middle panel: 0.3 and 3 nmol of ^αN-acetyl β-End 1–31 were administered icv 7 days after surgery, and the nociceptive threshold was evaluated at the indicated postinjection intervals (in minutes). For every time interval studied in min or days, * indicates a significant difference from the group that received saline instead of ^αN-acetyl β-End 1–31; ϕ significant difference from the effect of 3 nmol ^αN-acetyl β-End 1–31. […] All data are presented as the mean ± SD of six mice. ANOVA followed by the Holm–Sidak multiple comparisons test, p < 0.05, 1-β > 0.80. […] Upper panel: wild-type mice were injected icv with saline, ^αN-acetyl β-End 1–31 (1 nmol/mouse) or the combination of the σ1R agonist PPCC (3 nmol/mouse) plus ^αN-acetyl β-End 1–31 20 min before morphine and β-End 1–31. Analgesia was evaluated by the warm water (52 °C) tail-flick test at the interval postinjection corresponding to their peak effect, 30 min. Lower panel: σ1R^−/− mice received 1 nmol ^αN-acetyl β-End 1–31, 20 min before morphine and β-End 1–31 and analgesia was evaluated as described above. Eight mice were used per strain and treatment. * Significant difference with respect to the group treated with morphine or β-End 1–31 alone. ANOVA followed by the Holm–Sidak multiple comparisons test, p < 0.05, 1-β > 0.80.
After the basal mechanical sensitivity of the mice was tested, neuropathic pain was induced by chronic sciatic nerve constriction injury (CCI) surgery under isoflurane/oxygen anesthesia using the procedure described by Bennett and Xie with modifications. Briefly, a 0.5 cm incision was made in the right midthigh, the biceps femoris muscle was separated, and the sciatic nerve was exposed proximal to its trifurcation. Two ligatures (5/0 braided silk suture; Lorca Marin, Murcia, Spain, 70,014) were tied around this nerve approximately 1 mm apart until a short flick of the ipsilateral hind limb was observed. The incision was then closed in layers with a 4–0 Ethicon silk suture. The same procedure was used for sham surgery, except that the sciatic nerve was exposed but not ligated. The tactile pain threshold of both the ipsilateral and contralateral hind paws was then assessed before and on different days post-surgery. The mice were individually placed in a transparent plastic cage with a wire-mesh bottom that allowed full access to the paws. After a habituation period of 20 min, a mechanical stimulus was delivered to the plantar surface from below the floor of the test chamber to measure allodynia using an automatic von Frey apparatus (Ugo Basile #37,450, Comerio, Italy). A steel rod (0.5 mm diameter) was pushed against the hind paw over a 10 s period as the force increased from 0 to 10 g. When the mouse withdrew its hind paw, the mechanical stimulus was automatically stopped, and the force at which withdrawal occurred was recorded. At each time point, three separate threshold measurements were obtained from each hind paw and then averaged.

MOR = experiment: Coprecipitation of G proteins, σ2Rs and NMDAR NR1 C1 with PAG MORs after icv injection; format: in vivo, mouse; conditions: 60 min post-treatment; for effect on association of PAG MOR with G proteins, σ2Rs and NR1 C1: icv: β-End 1–31 5 pmol, ^αN-acetyl β-End 1–31 5 pmol, S1RA 3 nmol, n = 3
From the text: The data from σ2R^−/− solubilized cortical tissue were referred to the wild-type control (arbitrary value of 1). […] For each Gα subunit and the σ1R, the immunosignals in the absence of the acetylated peptide were the controls (C, value of 1). […] (D) Coprecipitation of G proteins with MORs in CD1 wild-type and σ2R^−/− mice. MORs were immunoprecipitated (IP) from mouse SBM. Coprecipitated proteins were detached from MORs and analyzed by Western blotting with antibodies directed to Gαi2, Gαo, Gαz and MOR proteins. (E) Effect of in vivo icv injection of β-End 1–31, ^αN-acetyl β-End 1–31 and S1RA on the association of PAG MORs with G proteins, σ2Rs and NMDAR NR1 C1 subunits. β-End 1–31 (5 pmol), ^αN-acetyl β-End 1–31 (5 pmol) and S1RA (3 nmol and 10 nmol) were icv-injected, and the mice were sacrificed 60 min post-treatment to obtain the PAG synaptosomal fraction. The MORs were immunoprecipitated from the solubilized membrane preparations, and the coprecipitated target proteins were analyzed by Western blotting. […] Representative blots are shown. The immunosignal provided by the light chain of the affinity-purified anti MOR IgGs was used as SDS-PAGE loading control. […] Data were analyzed by pairwise Holm–Sidak multiple comparison tests following ANOVA: p < 0.05, 1-β > 0.80.
In immunoprecipitation studies, the cerebral cortices or periaqueductal grey matter (PAG) from 4–6 mice are typically pooled, as described previously [89]. […] The software automatically calculates the optimal exposure time for each of the areas specified to provide the strongest possible signal for accurate quantification of the sample. Protein immunosignals were measured using the area of the strongest signal for each group of samples studied (average optical density of the pixels within the object area/mm^2; AlphaEase FC software); the grey values of the means were then normalized within the 8 bit/256 grey levels [(256 − computed value)/computed value].

σ1R oligomers-σ2R = molecular target: T1, σ1R oligomers-σ2R (Mus musculus, UniProt O55242); experiment: Ex vivo fishing assay: σ1R and σ2R of mouse cerebral cortex bound to agarose-σ1R oligomers; format: biochemical; conditions: wild-type mouse cerebral cortex SBM; n = 3
T1 construct: The coding region of the full-length murine σ1R (AF004927); GST (N); made in house; host or cells: E. coli BL21 (KRX) for the σ1R bait; σ2R and further σ1R come from solubilised mouse cerebral cortex synaptosomes
Experimental: (B) Θ-σ1R captured G proteins in CD1 wild-type and σ2R^−/− SBM. Ex vivo fishing assays were performed as described in Figure 4C. The data from σ2R^−/− solubilized cortical tissue were referred to the wild-type control (arbitrary value of 1). (C) The σ1R oligomers captured G proteins from σ2R^−/− mouse SBM. For each Gα subunit and the σ1R, the immunosignals in the absence of the acetylated peptide were the controls (C, value of 1). […] (A,B,D,E) Data are the mean ± SD, n = 3. Data were analyzed by pairwise Holm–Sidak multiple comparison tests following ANOVA: p < 0.05, 1-β > 0.80.
For fishing studies, solubilization of neural synaptosomes from cerebral cortices or PAG was carried out at 4 °C in RIPA buffer. The membranes were incubated at 4 °C for 16 h with agitation, and then centrifuged at 10,000× g for 5 min. The supernatant was cleared with 20 μL of Sepharose 4B (#17-0120-01, GE Healthcare) pre-equilibrated for 1 h at 4 °C, followed by centrifugation at 4300× g for 5 min. The σ1R was immobilized through covalent attachment to N-Hydroxysuccinimide (NHS)-activated Sepharose 4 fast flow (4FF, #17-0906-01; GE) according to the manufacturer’s instructions. […]

[2] = tested on: [^125I]-Tyr^27 β-End 1–31 binding site (probably the σ1R site); conditions: 5 pM [125I]-Tyr27 β-End 1–31; cited from earlier work
From the text: (§1) ^αN-acetyl β-End 1–31 prevented or alleviated a series of negative symptoms in animals, such as the brain injury caused by pMCAO, the convulsive syndrome promoted by icv-injection of NMDA, and mechanical allodynia caused by unilateral sciatic nerve CCI.

MORs = conditions: tritiated naloxone and morphine, mouse brain synaptosomes; cited from earlier work
From the text: as §1

[3] = tested on: CD1 mice (wild-type and σ1R−/−); conditions: single icv dose; cited from earlier work
[4] = 3 nmol icv 30 min before 1 nmol NMDA icv, wild-type mice

T1 sequence (O55242 whole entry): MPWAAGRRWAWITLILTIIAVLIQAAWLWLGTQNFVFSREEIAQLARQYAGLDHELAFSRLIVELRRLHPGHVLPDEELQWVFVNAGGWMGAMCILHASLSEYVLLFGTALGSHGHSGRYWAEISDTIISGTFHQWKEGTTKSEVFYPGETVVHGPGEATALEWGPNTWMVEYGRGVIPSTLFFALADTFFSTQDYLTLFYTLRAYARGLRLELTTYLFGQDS
Sequence of MOR (P42866 whole entry): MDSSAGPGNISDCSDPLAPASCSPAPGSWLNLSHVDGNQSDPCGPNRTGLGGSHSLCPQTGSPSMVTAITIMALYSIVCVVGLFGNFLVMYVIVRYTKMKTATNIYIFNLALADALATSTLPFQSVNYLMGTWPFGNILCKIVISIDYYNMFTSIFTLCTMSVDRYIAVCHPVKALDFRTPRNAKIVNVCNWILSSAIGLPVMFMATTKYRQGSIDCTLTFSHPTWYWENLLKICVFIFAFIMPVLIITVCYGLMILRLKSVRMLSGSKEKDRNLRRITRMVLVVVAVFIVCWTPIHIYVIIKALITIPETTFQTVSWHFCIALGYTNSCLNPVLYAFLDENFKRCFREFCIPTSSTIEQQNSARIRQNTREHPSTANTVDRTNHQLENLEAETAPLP

**Q.** What does the source list for `COC(=O)[C@]1(c2ccc(C)cc2)C[C@@H]1CN1CCC(O)(c2ccccc2)CC1` [PPCC, (1R,2S/1S,2R)-2-[4-hydroxy-4-phenylpiperidin-1-yl)methyl]-1-(4-methylphenyl) cyclopropanecarboxylate, reference compound]?
**A.** effect on behavioral signs evoked by NMDA [1, 4]: did not significantly alter the behavioral effects; effect on the anticonvulsant action of ^αN-acetyl β-End 1–31 ([1]; 3 nmol icv with ^αN-acetyl β-End 1–31, wild-type mice): prevented ^αN-acetyl β-End 1–31 from alleviating these signs

**Q.** For `Cl.O=C(OCCN1CCOCC1)C1(c2ccccc2)CCCCC1` [PRE084, 2-(4-morpholinethyl)-1-phenylcyclohexanecarboxylate hydrochloride, reference compound], which “effect on the antiallodynic action of ^αN-acetyl β-End 1–31” value (CCI CD1 mice; 3 nmol icv together with 3 nmol ^αN-acetyl β-End 1–31) is on record?
**A.** prevented the β-End 1–31 ^αN-acetyl derivative from diminishing the response of CCI mice in the von Frey test

**Q.** What does the source list for `Cc1cc(OCCN2CCOCC2)nn1-c1ccc2ccccc2c1` [S1RA]?
**A.** effect on association of PAG MOR with G proteins and σ2Rs, 10 nmol (MOR; 10 nmol icv): increased MOR association with Gi2/o and σ2Rs; effect on association of PAG MOR with G proteins, σ2Rs and NR1 C1 (MOR): slightly reproduced

**Q.** For “^αN-acetyl β-End 1–31: β-End 1–31 acetylated at N terminal Y1, α position”, which “effect on σ1R oligomerization and σ2R presence at the agarose-σ1R bait” value (σ1R oligomers-σ2R) is on record?
**A.** reduces the extent of σ1R oligomerization, and increases the association of σ2Rs with the bait

**Q.** What about the “fraction of [^125I]-Tyr^27 β-End 1–31 specific binding abolished” value [2] of the same molecule?
**A.** 20–30%

**Q.** What about the “affinity to MORs” value (MORs) of the same molecule?
**A.** μM range

**Q.** What about the “effect on association of PAG MOR with G proteins, σ2Rs and NR1 C1” value (MOR) of the same molecule?
**A.** slightly reproduced

**Q.** And the “duration of the effect of a single dose on analgesia” value [3]?
**A.** 24 h

**Q.** What about the “effect on clonic convulsions and tonic seizures” value [1, 4] of the same molecule?
**A.** only a tendency to diminish clonic convulsions and tonic seizures

**Q.** What about the “effect on behavioral signs evoked by NMDA” value [1, 4] of the same molecule?
**A.** partially protected the mice from hypermobility and convulsive rearing

**Q.** What about the “anticonvulsant effects in σ1R−/− mice” value ([1]; σ1R−/− mice, 3 nmol icv) of the same molecule?
**A.** absent

**Q.** And the “effect on mechanical allodynia, 0.3 nmol” value (CCI CD1 mice; 0.3 nmol icv 7 days after CCI surgery, von Frey, 6 mice)?
**A.** significantly reduced mechanical allodynia

**Q.** And the “effect on mechanical allodynia, 3 nmol” value (CCI CD1 mice; 3 nmol icv 7 days after CCI surgery, von Frey, 6 mice)?
**A.** practically restored the von Frey response to the levels observed presurgery

**Q.** And the “duration of clear protection” value (CCI CD1 mice; higher dose (3 nmol icv), partial protection for an additional 24 h)?
**A.** 24 h

**Q.** What about the “time after icv administration at which the beneficial effect was observed” value (CCI CD1 mice; icv, 7 days after CCI surgery) of the same molecule?
**A.** 10 to 15 min
